From US11730731B2 (INVENTAGE LAB INC., priority 2021, dated 2023)

Experiments:
MD2 protein = target: T1, MD2 protein (Homo sapiens, UniProt Q9Y6Y9); assay: Surface plasmon resonance analysis of binding to MD2; conditions: binding gradually increased as the concentration of naltrexone increased
T1 construct: purchased R&D systems (Minneapolis, Minn., USA)
T1 sequence (Q9Y6Y9 19-160): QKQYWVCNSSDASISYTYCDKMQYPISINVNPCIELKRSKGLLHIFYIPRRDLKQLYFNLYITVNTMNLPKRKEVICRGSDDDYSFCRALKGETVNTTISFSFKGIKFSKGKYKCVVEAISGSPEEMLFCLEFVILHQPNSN

p65 NF-κB [1] = assay: Western blotting of NF-κB activity in LPS-treated SW982 cells; type: cell-based, human
Experimental: (§1) 1× Cell lysis buffer (Cell signaling, CA, USA) was mixed with protease and a phosphatase inhibitor and added to SW982 cells. After extracting the protein from the cells, the concentration was measured, and the same amount of protein was developed on an SDS-polyacrylamide gel, and transferred to an ECL nitrocellulose membrane (Amersham Pharmacia Biotech, Inc., Piscataway, N.J., USA) and blocked with nonfat dried milk for 1 hour. Thereafter, the reaction was performed with the first antibody (p65 NF-κB, phospho p65 NF-κB or calnexin; Cell signaling, CA, USA), while shaking at 4° C. for 24 hours. Then, after shaking and washing 3 times for 10 minutes with PBST buffer, the secondary antibody was incubated with anti-mouse or anti-rabbit HRP-conjugated secondary antibody for 1 hour at room temperature, and reacted with the protein band on the membrane using Supersignal west pico ECL solution (Thermo Fisher Scientific Inc.). The results were visualized with the Bio-Rad Gel Documentation system (Bio-Rad Laboratories, Hercules, Calif., USA), and the results were shown in FIG. 26.
as §1, with “phospho p65 NF-κB, p-ERK, ERK, p-JNK, JNK, p-p38, p38 or calnexin;” for “phospho p65 NF-κB or calnexin;”, “Scientific Inc.). […]” for “Scientific Inc.). The results were visualized with the Bio-Rad Gel Documentation system (Bio-Rad Laboratories, Hercules, Calif., USA), and the results were shown in FIG. 26.”

MAPKs (ERK, JNK, p38) [2] = assay: Western blotting of MAPKs activity in LPS-treated SW982 cells; type: cell-based, human
Experimental: (§2) Western blotting was performed in the same manner as in Example 6.3. The first antibody used at this time is an antibody against p-ERK, ERK, p-JNK, JNK, p-p38, p38 and calnexin (Cell signaling, CA, USA), and the secondary antibody is anti-mouse or anti-rabbit HRP-binding secondary antibody.
1× Cell lysis buffer (Cell signaling, CA, USA) was mixed with protease and a phosphatase inhibitor and added to SW982 cells. After extracting the protein from the cells, the concentration was measured, and the same amount of protein was developed on an SDS-polyacrylamide gel, and transferred to an ECL nitrocellulose membrane (Amersham Pharmacia Biotech, Inc., Piscataway, N.J., USA) and blocked with nonfat dried milk for 1 hour. Thereafter, the reaction was performed with the first antibody (p65 NF-κB, phospho p65 NF-κB, p-ERK, ERK, p-JNK, JNK, p-p38, p38 or calnexin; Cell signaling, CA, USA), while shaking at 4° C. for 24 hours. Then, after shaking and washing 3 times for 10 minutes with PBST buffer, the secondary antibody was incubated with anti-mouse or anti-rabbit HRP-conjugated secondary antibody for 1 hour at room temperature, and reacted with the protein band on the membrane using Supersignal west pico ECL solution (Thermo Fisher Scientific Inc.). The results were visualized with the Bio-Rad Gel Documentation system (Bio-Rad Laboratories, Hercules, Calif., USA), and the results are shown in FIG. 35.

p65 NF-κB [3] = assay: Western blotting of NF-κB activity in LPS-treated Raw 264.7 cells; type: cell-based, mouse
MAPKs (ERK, JNK, p38) [4] = assay: Western blotting of MAPKs activity in LPS-treated Raw 264.7 cells; type: cell-based, mouse
Experimental: as §2
Western blotting was performed in the same manner as in Example 7.4.

[5] = tested on: pro-inflammatory cytokines (TNF-α, IL-1β, IL-6, IL-17, iNOS) in Raw 264.7 cells; assay: RT-qPCR of LPS-induced pro-inflammatory cytokine expression in Raw 264.7 cells; conditions: 6 hours
Description: Lipopolysaccharide (LPS) was purchased from Sigma-Aldrich (St. Louis, Mo., USA).

[6] = LPS 1 ug/ml, 0.5, 1, 10, 100 uM, 30 minutes, naltrexone effect at 1 uM
[7] = LPS 1 ug/ml, 0.5, 1, 10, 100 uM, 30 minutes

SMILES: O=C1CC[C@@]2(O)[C@H]3Cc4ccc(O)c5c4[C@@]2(CCN3CC2CC2)[C@H]1O5 [Naltrexone, 17-(cyclopropylmethyl)-4,5α-epoxy-3,14-dihydroxymorphinan-6-one]
- binding to MD2 (surface plasmon resonance) (MD2 protein): binds to the MD2 protein
- phosphorylation of p65 NF-κB increased by LPS (p65 NF-κB [1]; 200 ug/ml of naltrexone, Western blotting): inhibited
- phosphorylation of p65 NF-κB increased by LPS (p65 NF-κB [1]; [6]): inhibited
- phosphorylation of MAPK increased by LPS (MAPKs (ERK, JNK, p38) [2]; 200 or 500 ug/ml of naltrexone, Western blotting): decreased
- phosphorylation of MAPKs (ERK1/2, JNK, p38) increased by LPS (MAPKs (ERK, JNK, p38) [2]; [6]): inhibited
- p65 NF-κB phosphorylation increased by LPS (p65 NF-κB [3]; [7]): inhibited
- phosphorylation of p65 NF-κB increased by LPS (p65 NF-κB [3]; from a concentration of 500 ug/ml of naltrexone (100, 200, 500, 1000 ug/ml tested), Western blotting): inhibits the activity of NF-κB
- phosphorylation of MAPKs (ERK1/2, JNK, p38) (MAPKs (ERK, JNK, p38) [4]; [7]): no inhibitory effect
- phosphorylation of MAPKs increased by LPS (MAPKs (ERK, JNK, p38) [4]; naltrexone 100, 200, 500, or 1000 ug/ml, Western blotting): not inhibited
- expression of cytokines (iNOS, IL-1β, IL-6, TNF-α) induced by LPS ([5]; LPS 1 ug/ml, 0.5, 1, 10, 100 uM): suppressed at all concentrations
- expression of pro-inflammatory cytokines (TNF-α, IL-1β, IL-6, IL-17, iNOS) increased by LPS ([5]; LPS 1 ug/ml, naltrexone 200 or 500 ug/ml): significantly inhibited
